This passage reports glass transition temperature results from the PolyMetriX glass transition set.

Structures are written as SMILES. ± gives the standard deviation of the reports.

Consider `*C(=O)c1ccc2c(c1)C(=O)N(c1cc(N3C(=O)c4ccc(*)cc4C3=O)cc(C(F)(F)F)c1)C2=O` (repeat unit), for which the glass transition temperature amounted to 294.8 ± 1.1 °C.

Regarding `*C(=O)c1ccc2c(c1)C(=O)N(c1ccc(C(=O)c3ccc(N4C(=O)c5ccc(*)cc5C4=O)cc3)cc1)C2=O` (repeat unit), the glass transition temperature amounted to 293.00 ± 4.9 °C.

Consider `*C(=O)c1ccc2c(c1)C(=O)N(c1ccc(N3C(=O)c4ccc(*)cc4C3=O)cc1)C2=O` (repeat unit), for which the glass transition temperature is 325.00 ± 11 °C.

Compound `*C(=O)c1ccc2c(c1)C(=O)N(c1ccc(Oc3ccc(C(c4ccc(Oc5ccc(N6C(=O)c7ccc(*)cc7C6=O)cc5)cc4)(C(F)(F)F)C(F)(F)F)cc3)cc1)C2=O` (repeat unit) gave a glass transition temperature of 248.8 ± 18 °C.

For `*C(=O)c1ccc2c(c1)C(=O)N(c1ccc(Oc3ccc(N4C(=O)c5ccc(*)cc5C4=O)cc3)cc1)C2=O` (repeat unit), the glass transition temperature stood at 290.00 ± 28 °C.

The compound `*C(=O)c1ccc2c(c1)C(=O)N(c1cccc(Cc3cccc(N4C(=O)c5ccc(*)cc5C4=O)c3)c1)C2=O` (repeat unit) displayed a glass transition temperature of 249.50 ± 20 °C.

`*C(=O)c1ccc2c(c1)C(=O)N(c1cccc(S(=O)(=O)c3cccc(N4C(=O)c5ccc(*)cc5C4=O)c3)c1)C2=O` (repeat unit) displayed a glass transition temperature of 275.50 ± 3.5 °C.

`*C(=S)Nc1ccc(Oc2ccc(NC(=S)n3c(=O)c4cc5c(=O)n(*)c(=O)c5cc4c3=O)cc2)cc1` (repeat unit) registered a glass transition temperature of 265.00 °C.

In turn, `*C(C)C(*)C(=O)OCC` (repeat unit) displayed a glass transition temperature of 157.00 °C.

For the compound `*C(C)C(*)C(=O)OCCC` (repeat unit), the glass transition temperature is 116.00 °C.

`*C(C)C(*)C(=O)OCCCC` (repeat unit) registered a glass transition temperature of 90.00 °C.

For the compound `*C(F)(F)C(*)(F)OC(F)(F)C(F)(F)F` (repeat unit), the glass transition temperature stood at 29.00 °C.

The compound `*CC(OC(C)=O)C(CCC(C)(O)C=C)C(*)(C)C` (repeat unit) registered a glass transition temperature of 85.00 °C.

Consider `*CC(c1ccccc1)C1C(=O)NC(=O)C1*` (repeat unit), for which the glass transition temperature amounted to 246.00 °C.

Turning to `*CC/C=C(/*)C(C)C` (repeat unit), the glass transition temperature was -47.00 °C.

Consider `*CC/C=C(/*)CCCCCCC` (repeat unit), for which the glass transition temperature was -83.00 °C.

`*Oc1ccc(C2(c3ccc(Oc4ccc(C(=O)c5cccc6cccc(C(=O)c7ccc(*)cc7)c56)cc4)cc3)c3ccccc3-c3ccccc32)cc1` (repeat unit) had a glass transition temperature of 269.00 °C.

As for `*Oc1ccc(Oc2ccc(C(=O)c3cccc4cccc(C(=O)c5ccc(*)cc5)c34)cc2)cc1` (repeat unit), the glass transition temperature is 202.00 °C.

`*Oc1ccc(Oc2ccc(C(=O)c3ccccc3-c3ccccc3C(=O)c3ccc(*)cc3)cc2)cc1` (repeat unit) displayed a glass transition temperature of 175.00 °C.

For the compound `*c1cc(CCCCCCCC)c(*)s1` (repeat unit), the glass transition temperature is -13.10 ± 5.5 °C.

For the compound `*c1cc(CCCCCCCCCCCC)c(*)s1` (repeat unit), the glass transition temperature is -24.2 ± 8.1 °C.

On to `*c1ccc(-c2ccc(-n3c(=O)c4cc5c(=O)n(*)c(=O)c5cc4c3=O)cc2C(F)(F)F)c(C(F)(F)F)c1` (repeat unit), for which the glass transition temperature came to 379.00 ± 21 °C.

`*c1ccc(-c2ccc(-n3c(=O)c4cc5c(=O)n(*)c(=O)c5cc4c3=O)cc2OC(F)(F)F)c(OC(F)(F)F)c1` (repeat unit) returned a glass transition temperature of 373.50 ± 15 °C.

`*c1ccc(/C=C(\C#N)c2cc(OCCCCCCCC)c(/C(C#N)=C/c3ccc(N(*)c4ccccc4)cc3)cc2OCCCCCCCC)cc1` (repeat unit) returned a glass transition temperature of 78.00 °C.

As for `*c1ccc(C(=O)c2cccc(-n3c(=O)c4cc5c(=O)n(*)c(=O)c5cc4c3=O)c2)cc1` (repeat unit), the glass transition temperature was found to be 340.00 ± 11 °C.

As to `*c1ccc(C(c2ccc(-n3c(=O)c4cc5c(=O)n(*)c(=O)c5cc4c3=O)cc2)(C(F)(F)F)C(F)(F)F)cc1` (repeat unit), the glass transition temperature came out at 362.50 ± 25 °C.

With `*c1ccc(Cc2ccccc2-n2c(=O)c3cc4c(=O)n(*)c(=O)c4cc3c2=O)cc1` (repeat unit), the glass transition temperature stood at 356.50 °C.

`*c1ccc(N2C(=O)c3ccc(-c4cccc5c4C(=O)N(*)C5=O)cc3C2=O)cc1` (repeat unit) yielded a glass transition temperature of 405.00 ± 36 °C.

With `*c1ccc(Oc2ccc(C(c3ccc(Oc4ccc(-n5c(=O)c6cc7c(=O)n(*)c(=O)c7cc6c5=O)cc4)cc3)(C(F)(F)F)C(F)(F)F)cc2)cc1` (repeat unit), the glass transition temperature came to 302.50 ± 11 °C.

For the compound `*c1ccc(Oc2ccc(N3C(=O)c4ccc(Oc5ccc(C(c6ccc(Oc7ccc8c(c7)C(=O)N(*)C8=O)cc6)(C(F)(F)F)C(F)(F)F)cc5)cc4C3=O)cc2)cc1` (repeat unit), the glass transition temperature is 226.50 ± 43 °C.

`*c1ccc(Oc2ccc(N3C(=O)c4ccc(Oc5ccc6c(c5)C(=O)N(*)C6=O)cc4C3=O)cc2)cc1` (repeat unit): the glass transition temperature came to 269.00 ± 14 °C.

`*c1ccc(Oc2ccc(N3C(=O)c4cccc(Oc5cccc6c5C(=O)N(*)C6=O)c4C3=O)cc2)cc1` (repeat unit): the glass transition temperature is 293.8 ± 1.8 °C.

In turn, `*c1ccc(Oc2ccc(Oc3ccc(N4C(=O)c5cccc(Oc6cccc7c6C(=O)N(*)C7=O)c5C4=O)cc3)cc2)cc1` (repeat unit) came in with a glass transition temperature of 260.50 ± 3.5 °C.

`*c1ccc(Oc2ccccc2-n2c(=O)c3cc4c(=O)n(*)c(=O)c4cc3c2=O)cc1` (repeat unit) had a glass transition temperature of 386.00 °C.

On to `*c1ccc2c(c1)C(=O)N(c1ccc(N3C(=O)c4ccc(C(*)(C(F)(F)F)C(F)(F)F)cc4C3=O)cc1)C2=O` (repeat unit), for which the glass transition temperature was found to be 355.50 ± 19 °C.

With `*c1ccc2c(c1)C(=O)N(c1ccc(S(=O)(=O)c3ccc(N4C(=O)c5ccc(C(*)(C(F)(F)F)C(F)(F)F)cc5C4=O)cc3)cc1)C2=O` (repeat unit), the glass transition temperature came to 336.50 ± 0.7 °C.

Regarding `*c1ccc2c(c1)C(=O)N(c1cccc(Oc3cccc(Oc4cccc(N5C(=O)c6ccc(C(*)(C(F)(F)F)C(F)(F)F)cc6C5=O)c4)c3)c1)C2=O` (repeat unit), the glass transition temperature was 206.50 ± 0.7 °C.

`*c1ccc2c3ccc(-c4ccc(-c5ccc(-c6ccc(*)s6)c6nsnc56)s4)cc3n(C(CCCCCCCC)CCCCCCCC)c2c1` (repeat unit) yielded a glass transition temperature of 121.00 ± 7.1 °C.

`*c1cccc(-c2ccc3[nH]c(S(=O)(=O)c4nc5ccc(*)cc5[nH]4)nc3c2)c1` (repeat unit) had a glass transition temperature of 290.00 °C.

The compound `*c1cccc(Oc2ccc(-c3ccc(Oc4cccc(-n5c(=O)c6cc7c(=O)n(*)c(=O)c7cc6c5=O)c4)cc3)cc2)c1` (repeat unit) gave a glass transition temperature of 251.00 °C.

Take `*c1cccc(Oc2cccc(Oc3cccc(N4C(=O)c5c(c(-c6ccccc6)c(-c6ccc(-c7c(-c8ccccc8)c8c(c(-c9ccccc9)c7-c7ccccc7)C(=O)N(*)C8=O)cc6)c(-c6ccccc6)c5-c5ccccc5)C4=O)c3)c2)c1` (repeat unit): the glass transition temperature stood at 280.00 °C.

Compound `*c1cccc(P(=O)(c2ccc(C(F)(F)F)cc2)c2cccc(-n3c(=O)c4c(-c5ccccc5)c5c(=O)n(*)c(=O)c5c(-c5ccccc5)c4c3=O)c2)c1` (repeat unit) had a glass transition temperature of 337.00 °C.

Consider `*c1cccc(P(=O)(c2ccc(C(F)(F)F)cc2)c2cccc(-n3c(=O)c4cc5c(=O)n(*)c(=O)c5c(-c5cc(C(F)(F)F)cc(C(F)(F)F)c5)c4c3=O)c2)c1` (repeat unit), for which the glass transition temperature was 290.00 °C.

In turn, `*c1cccc(P(=O)(c2ccc(C(F)(F)F)cc2)c2cccc(-n3c(=O)c4cc5c(=O)n(*)c(=O)c5cc4c3=O)c2)c1` (repeat unit) returned a glass transition temperature of 311.00 °C.

In turn, `*c1cccc(P(=O)(c2cccc(-n3c(=O)c4c(-c5cc(C(F)(F)F)cc(C(F)(F)F)c5)c5c(=O)n(*)c(=O)c5c(-c5cc(C(F)(F)F)cc(C(F)(F)F)c5)c4c3=O)c2)c2cc(C(F)(F)F)cc(C(F)(F)F)c2)c1` (repeat unit) had a glass transition temperature of 293.00 °C.

`*c1cccc(P(=O)(c2cccc(-n3c(=O)c4c(-c5ccc(C(F)(F)F)cc5)c5c(=O)n(*)c(=O)c5c(-c5ccc(C(F)(F)F)cc5)c4c3=O)c2)c2cc(C(F)(F)F)cc(C(F)(F)F)c2)c1` (repeat unit) showed a glass transition temperature of 310.00 °C.

On to `*c1cccc(P(=O)(c2cccc(-n3c(=O)c4cc5c(=O)n(*)c(=O)c5c(-c5cc(C(F)(F)F)cc(C(F)(F)F)c5)c4c3=O)c2)c2cc(C(F)(F)F)cc(C(F)(F)F)c2)c1` (repeat unit), for which the glass transition temperature was 280.00 °C.

The compound `*c1cccc(P(=O)(c2cccc(-n3c(=O)c4cc5c(=O)n(*)c(=O)c5c(-c5ccccc5)c4c3=O)c2)c2cc(C(F)(F)F)cc(C(F)(F)F)c2)c1` (repeat unit) registered a glass transition temperature of 300.00 °C.

As to `*c1cccc(P(=O)(c2cccc(-n3c(=O)c4cc5c(=O)n(*)c(=O)c5cc4c3=O)c2)c2cc(C(F)(F)F)cc(C(F)(F)F)c2)c1` (repeat unit), the glass transition temperature amounted to 281.00 °C.

In turn, `*c1cccc(S(=O)(=O)c2cccc(-n3c(=O)c4cc5c(=O)n(*)c(=O)c5cc4c3=O)c2)c1` (repeat unit) yielded a glass transition temperature of 360.00 °C.

`*c1cccc(S(=O)(=O)c2cccc(N3C(=O)c4ccc(Oc5ccc6c(c5)C(=O)N(*)C6=O)cc4C3=O)c2)c1` (repeat unit) came in with a glass transition temperature of 246.00 ± 4.7 °C.

Compound `*c1cnc(C2C(c3ccccc3)C(*)C2c2ccccc2)cn1` (repeat unit) returned a glass transition temperature of 150.00 °C.

In turn, `*c1nc(C)nc(N(CCCCCCN(*)c2ccccc2)c2ccccc2)n1` (repeat unit) showed a glass transition temperature of 67.00 °C.

As for `*c1nc(C)nc(N(CCCCN(*)c2ccccc2)c2ccccc2)n1` (repeat unit), the glass transition temperature turned out to be 85.00 °C.

`*c1nnc(-c2cc(CCCCCCCC)c(-c3ccc(-c4sc(-c5nnc(-c6cc(OCCCCCCCC)c(*)cc6OCCCCCCCC)o5)cc4CCCCCCCC)s3)s2)o1` (repeat unit) gave a glass transition temperature of 34.10 °C.
